Measurements reported in paper PMC6253875, “Synthesis and Evaluation of Non-peptidic Cysteine Protease Inhibitors of P. falciparum Derived from Etacrynic Acid” (Molecules, 2008).
Read-outs that look alike come from different tables or passages of the source.

Key:
falcipain-3 = biological target: T1, falcipain-3 (Plasmodium falciparum, UniProt Q8IIL0); test: Inhibition of recombinant falcipain-3, fluorometric microplate assay (Cbz-Leu-Arg-AMC); assay type: biochemical
T1 construct: made in house; host or cells: E. coli
T1 sequence (Q8IIL0 243-492): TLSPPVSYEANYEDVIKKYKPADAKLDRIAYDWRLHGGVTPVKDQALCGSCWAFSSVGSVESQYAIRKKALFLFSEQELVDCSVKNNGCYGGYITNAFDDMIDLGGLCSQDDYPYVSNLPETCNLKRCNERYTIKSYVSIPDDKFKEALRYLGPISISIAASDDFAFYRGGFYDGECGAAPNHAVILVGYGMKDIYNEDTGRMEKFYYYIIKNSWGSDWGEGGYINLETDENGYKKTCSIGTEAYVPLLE
Method: (§1) Recombinant falcipain-2 and falcipain-3 were produced as previously described. Inhibitory activities against recombinant falcipain-2 and falcipain-3 were evaluated in fluorometric microplate assays using the substrates Cbz-Phe-Arg-AMC and Cbz-Leu-Arg-AMC (AMC, 7-amino-4-methyl-coumarin). The cysteine protease inhibitor E-64 was used as a positive control. The solvent DMSO was used as negative control. […] The in vitro data for the etacrynic acid derivatives are compared to those of the well known drug chloroquine and to E-64.
(§2) Falcipain-2 and falcipain-3 were recombinantly expressed in E. coli and refolded to active enzyme as previously described.
(§3) IC50 values for inhibition of falcipain-2 and falcipain-3 were determined as described previously using the fluorogenic substrates Cbz-Phe-Arg-AMC and Cbz-Leu-Arg-AMC, respectively (AMC, 7-amino-4 methylcoumarin). As a positive control the well-known cysteine protease inhibitor E-64 [7, 25, 26] and as a negative control the solvent (DMSO) was used. Dose-dependent effects of compounds on parasite development (P. falciparum strain W2) were quantified by flow cytometry according to a previously published method. First, a screening with inhibitor concentrations of […] was performed and the percentage activity of infected red blood cells (RBCs) relative to the negative control was determined. […] Chloroquine and E-64 were used as positive controls, and the solvent DMSO was used as a negative control. For selected compounds assays with the P. falciparum strain 3D7 were performed using a fluorometric assay with Hoechst-33258 [28], or the microculture tetrazolium test measuring parasite lactate dehydrogenase activity. The parasites were cultivated in vitro as described previously. Compounds were screened at concentrations between 1 nM and 100 μM. Synchronized ring stages were plated in 96-well plates at a parasitemia of 1%, in the presence of the compounds (dissolved in DMSO). Incubation of parasites with DMSO alone at a concentration of 0.5% v/v was used as a negative control. IC50 values were calculated by non-linear regression analyses using the programs GaphPad® Prism 4 and GraFit® [31, 32].

P. falciparum strain W2 = test: Antiplasmodial activity in vitro, parasite development quantified by flow cytometry; assay type: cell-based, Plasmodium falciparum; conditions: W2 strain (CQ-resistant), ni = no inhibition; for IC50: Plasmodium falciparum, 3D7 / W2, read-out: P. f. 3D7/W2, IC50
Method: as §3

falcipain-2 = biological target: T2, falcipain-2 (Plasmodium falciparum, UniProt Q8I6U4); test: Inhibition of recombinant falcipain-2, fluorometric microplate assay (Cbz-Phe-Arg-AMC); assay type: biochemical
T2 construct: made in house; host or cells: E. coli
T2 sequence (Q8I6U4 244-484): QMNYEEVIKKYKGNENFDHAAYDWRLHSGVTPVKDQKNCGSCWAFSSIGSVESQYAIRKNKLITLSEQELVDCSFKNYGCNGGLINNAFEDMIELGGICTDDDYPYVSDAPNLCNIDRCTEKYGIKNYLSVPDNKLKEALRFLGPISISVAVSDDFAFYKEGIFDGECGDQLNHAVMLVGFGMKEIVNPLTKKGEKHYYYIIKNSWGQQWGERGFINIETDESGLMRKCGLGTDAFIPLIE
Method: as §1, §2, §3

[1] = recombinant falcipain-3, ni = no inhibition
[2] = recombinant falcipain-2, values marked ^a: only one experiment, ni = no inhibition, read-out: FP-2 IC50
[3] = recombinant falcipain-2, values marked ^a: only one experiment, ni = no inhibition
[4] = recombinant falcipain-3, ni = no inhibition, read-out: FP-3 IC50

Row | Compound | FP-3 IC50 (falcipain-3; [1]) | P. f. 3D7/W2, IC50 (P. falciparum strain W2) | IC50 (falcipain-2; [2]) [µM] | IC50 (falcipain-3; [4]) [µM] | further results
1 | CCCC(=O)c1ccc(OCC(=O)NC(C)(C)CO)c(F)c1 [Compound 31, 2-(4-Butyryl-2-fluorophenoxy)-N-(1-hydroxy-2-methylpropan-2-yl)acetamide] | – | – | – | – | FP-2 IC50 (falcipain-2; [3]): ni
2 | C=C(CC)C(=O)c1ccc(OCC(=O)NC(C)(C)C(N)=O)c(Cl)c1Cl [Compound 14] | ni | – | 318 ± 14 | – | IC50 (P. falciparum strain W2): 29.3 ± 3.4 µM
3 | C=C(CC)C(=O)c1ccc(OCC(=O)NC(C(=O)OC)C(C)CC)c(F)c1 (centres unmarked) [Compound 7, Methyl-2-(2-(2-fluoro-4-(2-methylenebutanoyl)phenoxy)acetamido)-3-methylpentanoate] | – | – | – | – | FP-2 IC50 (falcipain-2; [3]): ni
4 | C=C(CC)C(=O)c1ccc(OCC(=O)NC(CCC(=O)O)C(=O)O)c(Cl)c1Cl (centres unmarked) [Compound 22, 2-{2-[2,3-Dichloro-4-(2-methylene-butyryl)-phenoxy]acetylamino}pentanedioic acid] | ni | nic | – | – | FP-2 IC50 (falcipain-2; [3]): ni
5 | CCC(C)C(=O)c1ccc(OCC(=O)O)c(Cl)c1Cl (centres unmarked) [Compound 25] | ni | ni^c | 531 | – | –
6 | C=C(CC)C(=O)c1ccc(OCC(=O)O)c(Cl)c1Cl [Compound 8, etacrynic acid] | ni | ni^c | 443 ± 17 | – | –
7 | CCCCNC(=O)COc1ccc(C(=O)CCC)cc1F [Compound 30, N-butyl-2-(4-butyryl-2-fluorophenoxy)acetamide] | – | – | – | – | FP-2 IC50 (falcipain-2; [3]): ni
8 | C=C(CC)C(=O)c1ccc(OCC(=O)N2CCN(CC)CC2)c(Cl)c1Cl [Compound 19] | – | – | – | – | IC50 (falcipain-3): 557 ± 23 µM; IC50 (P. falciparum strain W2): 27.4 ± 4.1 µM; IC50 (falcipain-2): 144 ± 11 µM
9 | CCCC(=O)c1ccc(OCC(=O)NC(C(=O)OC)C(C)CC)c(F)c1 (centres unmarked) [Compound 32, Methyl 2-(2-(4-butyryl-2-fluorophenoxy)acetamido)-3-methylpentanoate] | – | – | – | – | FP-2 IC50 (falcipain-2; [3]): ni

More lines, main results first:

Row | FP-3 IC50 (falcipain-3; [1]) | P. f. 3D7/W2, IC50 (P. falciparum strain W2) | IC50 (falcipain-2; [2]) [µM] | IC50 (falcipain-3; [4]) [µM] | Compound | further results
10 | ni | nic | 212 ± 17 | – | C=C(CC)C(=O)c1ccc(OCC(=O)NCC(=O)N[C@@H](C)C(N)=O)c(Cl)c1Cl [Compound 15] | –
11 | ni | nic | 242 ± 19 | – | C=C(CC)C(=O)c1ccc(OCC(=O)NCC(=O)N[C@@H](Cc2ccccc2)C(N)=O)c(Cl)c1Cl [Compound 16] | –
12 | – | – | 165 ± 12 | – | C=C(CC)C(=O)c1ccc(OCC(=O)N[C@H](C)C(=O)OCc2ccccc2)c(Cl)c1Cl [Compound 12] | –
13 | – | – | 3 ± 1.1 | 11.9 ± 1.1 | C=C(CC)C(=O)c1ccc(OCC(=O)NCCCCCCNC(=O)CCCCC2SCC3NC(=O)NC32)c(Cl)c1Cl (centres unmarked) [Compound 24, 5-(2-Oxo-hexahydro-thieno[3,4-d]imidazol-4-yl)pentanoic acid (6-{2-[2,3-dichloro-4-(2-methylene-butyryl)-phenoxy]acetylamino}-hexyl)-amide] | IC50 (P. falciparum strain W2): 9 ± 0.4 µM
14 | – | – | 80 ± 6 | – | CCCC(=O)c1ccc(OCC(=O)NC(C)(C)C)c(F)c1 [Compound 28, N-tert-butyl-2-(4-butyryl-2-fluorophenoxy)acetamide] | IC50 (P. falciparum strain W2): 66.4 ± 2.2 µM
15 | – | ni^c | 60.6 ± 4.2 | 163 ± 5.6 | C=C(CC)C(=O)c1ccc(OCC(=O)OCC)c(Cl)c1Cl [Compound 9] | –
16 | – | nic | 305 ± 30 | 479 ± 23 | C=C(CC)C(=O)c1ccc(OCC(=O)N2CCOCC2)c(Cl)c1Cl [Compound 17] | –
17 | – | ni^c | 110 ± 5 | 381 ± 21 | C=C(CC)C(=O)c1ccc(Cl)cc1OCC(=O)OCC [Compound 2] | –
18 | – | ni^c | 178 ± 14 | 56.7 ± 5.7 | C=C(CC)C(=O)c1ccc(OCC(=O)N[C@@H](C)C(=O)OCc2ccccc2)c(Cl)c1Cl [Compound 10] | –
19 | – | nic | 182 ± 9 | 123 ± 8 | C=C(CC)C(=O)c1ccc(OCC(=O)NCCCCCC)c(Cl)c1Cl [Compound 21] | –
20 | – | – | 80 ± 6 | – | CCCC(=O)c1ccc(OCC(=O)OC(C)(C)C)c(F)c1 [Compound 29, Tert-butyl-2-(4-butyryl-2-fluorophenoxy)acetate] | –
